# Test results reported in US20230136218A1, “METHODS AND COMPOSITIONS FOR TREATING ACUTE MYELOID LEUKEMIA” (President and Fellows of Harvard College, priority 2019, published 2023).
# “Also recorded” adds a separate entry of the source.
# Key:
# MLL-AF9 AML = assay: Kaplan-Meier survival of MLL-AF9 AML-bearing mice; assay type: in vivo, mouse
# Text: (§1) The MLL-AF9 and HoxA9/Meis1 leukemia models have been described previously (Sykes et al., 2016). Briefly, the MLL-AF9 model was established by crossing MLL-AF9 knockin mice (Corral et al., 1996) with mice expressing GFP under the control of the ubiquitin promoter as well as mice expressing luciferase under the control of the β-actin promoter. The retroviral transduction model of HoxA9/Meis1 leukemia was generated by the infection of bone marrow mononuclear cells with an MSCV-HoxA9-IRES-Meis1 construct (originally designed by Dr. Guy Sauvageau; Kroon et al., 1998). For both models, leukemic bone marrow cells from a terminally ill mouse were harvested and expanded ex vivo in RPMI1640 medium (Lonza) supplemented with 10% fetal bovine serum (FBS; Gibco), 100 I.U./ml penicillin, 100 μg/ml streptomycin, 2 mM L-glutamine (all from Corning), 20 ng/ml recombinant mouse SCF (rmSCF), 10 ng/ml recombinant mouse interleukin 3 (rmIL-3) and […] (all from R&D Systems).
# (§2) Recipient male mice (age 8-10 weeks) were injected intravenously (retro-orbital) with 1 million leukemia cells in a volume of 100 μl of saline. Disease progression was tracked intravitally using bioluminescence imaging. Mice were anaesthetized using isoflurane, injected with luciferin (150 μl of a 15 mg/ml solution in PBS), and imaged on an IVIS 200 Spectrum In Vivo Imaging System (PerkinElmer). When indicated, mice were treated with iCT (cytarabine, 100 mg/kg, once daily for 5 days and doxorubicin, 3 mg/kg, once daily for the first 3 days) or vehicle (saline) delivered via I.P. injection. To inhibit glutamine metabolism, mice were treated with DON (0.3 mg/kg, once daily) or vehicle (saline) delivered via I.P. injection. To inhibit GLS, mice were treated with a GLS inhibitor (150 mg/kg, twice daily) or vehicle (20% HP-β-cyclodextrin+20% Solutol, 50 mM citrate buffer, pH 3) delivered by oral gavage. To inhibit DHODH, mice were treated with BRQ (50 mg/kg, once daily) or vehicle (70% PBS, 30% poly(ethylene glycol)-400, pH 7.2) delivered via I.P. injection. To inhibit GCL, mice were treated with BSO (twice daily by I.P. injection at 2.23 mg/kg+in the drinking water at 4.45 mg/ml) or vehicle (saline by I.P. injection+untreated drinking water).
# MLL-AF9 AML cells [1] = assay: AML burden of MLL-AF9 AML-bearing mice by bioluminescence imaging or flow cytometry; assay type: in vivo, mouse
# Procedure: as §2, with “To inhibit DHODH, mice were treated with BRQ (50 mg/kg, once daily) or vehicle (70% PBS, 30% poly(ethylene glycol)-400, pH 7.2) delivered via I.P. injection. To inhibit GCL, mice were treated with BSO (twice daily by I.P. injection at 2.23 mg/kg+in the drinking water at 4.45 mg/ml) or vehicle (saline by I.P. injection+untreated drinking water).” left out
# (§3) Cells were suspended in flow buffer and stained for 30 minutes at 4° C. in the dark with antibodies against c-Kit, Sca-1, CD34, CD45, Ter-119, CD31, LepR, CD90, CD105, SLC1A3, SLC38A1 or a lineage cocktail (CD3, Gr-1, CD11b, B220, Ter-119). […] Cell viability was analyzed using Annexin V-APC (BioLegend) and propidium iodide (PI; ThermoFisher Scientific) with Annexin V^−PI^− cells considered as viable cells. The number of viable cells was determined by taking into account the total number of cells per well as measured using a Cellometer (Nexcelom). Mitochondrial membrane potential was measured by Tetramethylrhodamine, ethyl ester (TMRE; ThermoFisher) staining and levels of ROS were measured by CellROX Orange staining. Cells were incubated with 200 nM TMRE or 2.5 μM CellROX Orange in RPMI1640 medium supplemented with 10% FBS, 100 I.U./ml penicillin, 100 μg/ml streptomycin and 2 mM L-glutamine at 37° C. for 30 minutes, washed in flow buffer and analyzed. For all flow cytometry experiments, single color controls were used to set compensations and fluorescence minus one controls were used to set gates. […]
# [2] = system: pyrimidine synthesis in HoxA9/Meis1 AML cells; assay: LC-MS-based quantification of glutamine metabolism and pyrimidine synthesis metabolites in HoxA9/Meis1 AML cells of treated mice; assay type: in vivo, mouse; conditions: mice treated with vehicle or BRQ 24 prior
# Procedure: as §2, with “To inhibit GCL, mice were treated with BSO (twice daily by I.P. injection at 2.23 mg/kg+in the drinking water at 4.45 mg/ml) or vehicle (saline by I.P. injection+untreated drinking water).” left out
# (§4) For untargeted metabolomics analysis, data were processed with Compound Discoverer 3.0 (ThermoFisher Scientific) using the mzCloud mass spectral library for compound annotation. […] For targeted metabolomics analysis, data were analyzed with Tracefinder4.1 (ThermoFisher Scientific).
# MLL-AF9 AML cells [3] = assay: Flow cytometric quantification of CD34 and cKit levels in AML cells obtained from treated mice; assay type: in vivo, mouse
# Procedure: as §2
# Cells were suspended in flow buffer and stained for 30 minutes at 4° C. in the dark with antibodies against c-Kit, Sca-1, CD34, CD45, Ter-119, CD31, LepR, CD90, CD105, SLC1A3, SLC38A1 or a lineage cocktail (CD3, Gr-1, CD11b, B220, Ter-119). 7-AAD was included as a viability dye to help identify dead cells. When necessary, cells were stained with a secondary antibody (Alexa Fluor 546-conjugated anti-rabbit IgG) or APC-eFluor 780-conjugated streptavidin (eBioscience) for 15 minutes at 4° C. in the dark. […] Cell viability was analyzed using Annexin V-APC (BioLegend) and propidium iodide (PI; ThermoFisher Scientific) with Annexin V^−PI^− cells considered as viable cells. The number of viable cells was determined by taking into account the total number of cells per well as measured using a Cellometer (Nexcelom). Mitochondrial membrane potential was measured by Tetramethylrhodamine, ethyl ester (TMRE; ThermoFisher) staining and levels of ROS were measured by CellROX Orange staining. Cells were incubated with 200 nM TMRE or 2.5 μM CellROX Orange in RPMI1640 medium supplemented with 10% FBS, 100 I.U./ml penicillin, 100 μg/ml streptomycin and 2 mM L-glutamine at 37° C. for 30 minutes, washed in flow buffer and analyzed. For all flow cytometry experiments, single color controls were used to set compensations and fluorescence minus one controls were used to set gates. All flow cytometry data was collected on a BD LSR II flow cytometer and analyzed using FlowJo software.
# MLL-AF9 AML cells [4] = assay: Colony forming unit assay of AML cells obtained from treated mice; assay type: in vivo, mouse
# Procedure: as §2, with “water). […] FACS-sorted viable AML cells (GFP^+7-AAD^−) were resuspended in MethoCult GF M3434 (StemCell Technologies) at 1000 cells/ml and plated in SmartDish 6-well plates (StemCell Technologies) at 1 ml/well in duplicate. Cells were cultured in a humidified incubator at 37° C. in ambient air with 5% CO2. After 5 days colonies were counted.” for “water).”
# HoxA9/Meis1 AML = assay: Kaplan-Meier survival of HoxA9/Meis1 AML-bearing mice; assay type: in vivo, mouse
# Text: as §1
# (§5) Recipient male mice (age 8-10 weeks) were injected intravenously (retro-orbital) with 1 million leukemia cells in a volume of 100 μl of saline. Disease progression was tracked intravitally using bioluminescence imaging. Mice were anaesthetized using isoflurane, injected with luciferin (150 μl of a 15 mg/ml solution in PBS), and imaged on an IVIS 200 Spectrum In Vivo Imaging System (PerkinElmer). […]
# [5] = Tolerability of DON in AML-bearing mice; assay type: in vivo, mouse
# Procedure: as §2
# [6] = system: solid tumors and leukemia; conditions: Phase I and II clinical trials, cited from earlier work
# HoxA9/Meis1 AML cells = assay: AML cell elimination in HoxA9/Meis1 AML-bearing mice; assay type: in vivo, mouse; conditions: DON after completion of iCT
# Procedure: as §2
# MLL-AF9 AML cells [7] = assay: Double-stranded DNA breaks in MLL-AF9 AML cells of treated mice, flow cytometry for gamma-H2AX; assay type: in vivo, mouse; conditions: short term DON after iCT; one day after the last dose of DON
# Procedure: as §5, with “(PerkinElmer). When indicated, mice were treated with iCT (cytarabine, 100 mg/kg, once daily for 5 days and doxorubicin, 3 mg/kg, once daily for the first 3 days) or vehicle (saline) delivered via I.P. injection.” for “(PerkinElmer).”
# as §3, with “staining.” for “staining. Cells were incubated with 200 nM TMRE or 2.5 μM CellROX Orange in RPMI1640 medium supplemented with 10% FBS, 100 I.U./ml penicillin, 100 μg/ml streptomycin and 2 mM L-glutamine at 37° C. for 30 minutes, washed in flow buffer and analyzed. For all flow cytometry experiments, single color controls were used to set compensations and fluorescence minus one controls were used to set gates.”
# MLL-AF9 AML cells [8] = assay: Apoptotic cells in MLL-AF9 AML cells of treated mice, flow cytometry for active Caspase 3; assay type: in vivo, mouse; conditions: combination of iCT and DON (sequential); one day after the last dose of DON
# Procedure: as §2
# [9] = system: glutamine metabolism in MLL-AF9 AML cells; assay: LC-MS-based quantification of metabolites in MLL-AF9 AML cells of treated mice; assay type: in vivo, mouse; conditions: one day after the last dose of DON
# Procedure: as §2
# Mice were euthanized by CO2 asphyxiation and femurs and tibias were isolated and cleaned to remove muscle. Bones were then crushed using a mortar and pestle in ice-cold flow buffer (PBS containing 2% FBS), and the obtained cell suspension was passed through a 70 μm cell strainer. Red blood cells were removed by incubating cells for 5 minutes in ACK lysing buffer (Gibco) on ice, cells were washed and resuspended in ice-cold flow buffer containing the viability dye 7-aminoactinomycin D (7-AAD; BD Biosciences). Viable AML cells (GFP^+7-AAD^−) were sorted on a BD FACSAria II (BD Biosciences) with the sample collector cooled to 4° C. Sorted cells were immediately processed.
# FACS-sorted cells or plasma samples were lysed in ice-cold methanol and polar metabolites were extracted using methanol-chloroform phase separation (methanol:water:chloroform in 2:1:2 ratio). Samples were then dried under nitrogen flow, resuspended in 70% acetonitrile in water containing 2.5 μM of an internal standard (^13C-, ^15N-labeled amino acid mix; Cambridge Isotope Laboratories) and run on a ThermoFisher Q-exactive equipped with Zic-pHILIC column (150×2.1 mm, 5 μm; Merck). A volume of 5 μl was injected and the full mass spectrum was obtained in both positive and negative mode (0 to 45 minutes, resolution 70000, AGC target 3e6, mz range 66 to 990). Mobile phase A for chromatography consisted of 20 mM ammonium carbonate, 0.1% ammonium hydroxide, in water and mobile phase B of 97% acetonitrile in water. For untargeted metabolomics, a pooled sample was created from all samples and used for MS/MS runs. For targeted analysis, a standard mix at 1 μM of each compound of interest was prepared and run after the samples to confirm retention times.
# as §4
# [10] = agent alone, compared to vehicle-treated mice
# [11] = combination with iCT (sequential), four days after the last dose of iCT
compound,measurement,setting,value
"Cc1c(-c2ccc(-c3ccccc3F)cc2)nc2ccc(F)cc2c1C(=O)O [BRQ, brequinar]",survival,"MLL-AF9 AML; two doses of BRQ 50 mg/kg I.P. following iCT, compared to iCT alone",significantly extend survival; also recorded: extended survival
same,survival,"MLL-AF9 AML; two doses of BRQ 50 mg/kg I.P. following iCT, compared to iCT alone, listed as brequinar",remarkably extend animal survival
same,elimination of AML cells from the bone marrow,"MLL-AF9 AML cells [1]; short term BRQ after iCT, four days after the last dose of iCT",improved elimination of AML cells from the bone marrow
same,pyrimidine synthesis (metabolite levels),[2],effectively inhibits pyrimidine synthesis
same,percentage of CD34+cKit+ cells,MLL-AF9 AML cells [3]; [10],strongly reduced
same,percentage of CD34-cKit+ cells,"MLL-AF9 AML cells [3]; combination with iCT, compared to BRQ alone",further reduced
same,number of colony-forming units (CFUs),MLL-AF9 AML cells [4]; [10],strongly reduced
same,number of colony-forming units (CFUs),MLL-AF9 AML cells [4]; [11],further reduced
same,survival,"HoxA9/Meis1 AML; BRQ 50 mg/kg I.P. following iCT, compared to iCT alone (FIG. 19E)",significantly extend survival
"CCCCS(=N)(=O)CCC(N)C(=O)O [BSO, L-buthionine-sulfoximine]",survival,"MLL-AF9 AML; BSO (2.23 mg/kg B.I.D. I.P. + 4.45 mg/ml in drinking water) for 4 days following iCT, compared to iCT alone",no difference in survival compared to iCT alone
"[N-]=[N+]=CC(=O)CC[C@H](N)C(=O)O [DON, 6-diazo-5-oxo-L-norleucine]",tolerability,[5]; DON every other day after iCT,acceptable
same,tolerability / toxicity,[5]; daily DON injections after iCT,toxicity issues; also recorded: did not tolerate
same,survival,MLL-AF9 AML; DON 0.3 mg/kg I.P. given for 5 days at the same time as iCT (concomitant),no difference in survival
same,survival,"MLL-AF9 AML; DON 0.3 mg/kg I.P. started after completion of iCT, covering the moment of maximal response, daily for a short time or continuously every other day",clear survival benefit; also recorded: improved survival
same,"survival, DON every other day compared to short term DON treatment",MLL-AF9 AML; DON every other day following iCT,further improved mouse survival
same,relapse,"MLL-AF9 AML cells [1]; short term DON after iCT, bioluminescence imaging",delayed relapse
same,elimination of AML cells (AML burden),"MLL-AF9 AML cells [1]; short term DON after iCT, one day after the last dose of DON",improved elimination of AML cells; also recorded: reduced the number of chemoresistant cells
same,percentage of CD34+cKit+ cells,MLL-AF9 AML cells [3]; [10],no effect on marker expression
same,percentage of CD34+cKit+ cells,MLL-AF9 AML cells [3]; [11],normalized
same,number of colony-forming units (CFUs),MLL-AF9 AML cells [4]; [10],moderately increased the number of CFUs
same,number of colony-forming units (CFUs),MLL-AF9 AML cells [4]; [11],normalized
same,clinical side effects,[6],"dose-dependent side effects including nausea, vomiting and mucositis"
same,clinical efficacy,[6]; single agent,limited efficacy as a single agent
same,AML cell elimination,HoxA9/Meis1 AML cells,enhanced AML cell elimination
same,double stranded DNA breaks in residual cells (gamma-H2AX),MLL-AF9 AML cells [7],increased double stranded DNA breaks
same,survival,HoxA9/Meis1 AML; two doses of DON 0.3 mg/kg I.P. after completion of iCT,improved mouse survival
same,percentage of apoptotic cells (active Caspase 3),MLL-AF9 AML cells [8],more apoptotic cells
same,UMP levels in chemoresistant AML cells,[9]; DON after iCT,prevented the increase of UMP levels
same,glutamate level in AML cells,[9]; DON after iCT,normalizing the increase in glutamate; also recorded: partially reducing the increase in glutamate
same,reduced glutathione (GSH) levels in AML cells,[9]; DON after iCT,effective in suppressing the increase in GSH levels
same,aspartate level in AML cells,[9]; iCT followed by DON,remained high
same,glutamine level in AML cells,[9]; mice treated with iCT and/or DON,accumulation of glutamine
